# Experimental data: the Kinase Knowledgebase extract (Sharma et al. 2016)
# pIC50: −log10 of the molar value.
# Columns and labels:
# [1] = molecular target: PIK3CA (human) (UniProt P42336)
# [2] = molecular target: PIK3CB (Human) (UniProt P42338)
# PIK3CB (Human), sequence (P42338 whole entry, looked up): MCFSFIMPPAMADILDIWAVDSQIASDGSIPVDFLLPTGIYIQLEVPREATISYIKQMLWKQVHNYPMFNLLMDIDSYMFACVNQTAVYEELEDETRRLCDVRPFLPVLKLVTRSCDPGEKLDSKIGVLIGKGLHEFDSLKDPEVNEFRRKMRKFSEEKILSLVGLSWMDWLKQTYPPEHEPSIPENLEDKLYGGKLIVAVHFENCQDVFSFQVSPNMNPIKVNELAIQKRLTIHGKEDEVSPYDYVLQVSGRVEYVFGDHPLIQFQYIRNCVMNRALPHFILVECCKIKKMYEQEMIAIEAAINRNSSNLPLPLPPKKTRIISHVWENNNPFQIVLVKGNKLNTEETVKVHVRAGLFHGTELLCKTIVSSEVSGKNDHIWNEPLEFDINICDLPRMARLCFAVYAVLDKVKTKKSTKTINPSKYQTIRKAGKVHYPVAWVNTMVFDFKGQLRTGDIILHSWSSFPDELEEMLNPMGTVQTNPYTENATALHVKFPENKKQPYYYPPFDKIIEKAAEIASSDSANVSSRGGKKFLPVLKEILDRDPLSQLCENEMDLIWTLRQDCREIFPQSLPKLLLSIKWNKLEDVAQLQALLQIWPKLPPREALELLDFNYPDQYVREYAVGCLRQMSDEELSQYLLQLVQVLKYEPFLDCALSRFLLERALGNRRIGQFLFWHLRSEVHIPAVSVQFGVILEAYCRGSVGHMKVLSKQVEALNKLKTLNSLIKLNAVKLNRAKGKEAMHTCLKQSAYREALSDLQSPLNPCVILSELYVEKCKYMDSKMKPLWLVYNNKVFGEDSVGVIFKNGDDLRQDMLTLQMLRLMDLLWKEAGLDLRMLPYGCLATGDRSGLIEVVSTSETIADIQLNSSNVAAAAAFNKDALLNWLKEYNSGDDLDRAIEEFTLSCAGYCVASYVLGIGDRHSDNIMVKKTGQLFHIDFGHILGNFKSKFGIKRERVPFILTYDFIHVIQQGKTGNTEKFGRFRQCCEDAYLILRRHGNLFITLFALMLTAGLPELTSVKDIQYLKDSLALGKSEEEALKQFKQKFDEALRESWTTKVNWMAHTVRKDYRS
# PIK3CA (human), sequence (P42336 whole entry, looked up): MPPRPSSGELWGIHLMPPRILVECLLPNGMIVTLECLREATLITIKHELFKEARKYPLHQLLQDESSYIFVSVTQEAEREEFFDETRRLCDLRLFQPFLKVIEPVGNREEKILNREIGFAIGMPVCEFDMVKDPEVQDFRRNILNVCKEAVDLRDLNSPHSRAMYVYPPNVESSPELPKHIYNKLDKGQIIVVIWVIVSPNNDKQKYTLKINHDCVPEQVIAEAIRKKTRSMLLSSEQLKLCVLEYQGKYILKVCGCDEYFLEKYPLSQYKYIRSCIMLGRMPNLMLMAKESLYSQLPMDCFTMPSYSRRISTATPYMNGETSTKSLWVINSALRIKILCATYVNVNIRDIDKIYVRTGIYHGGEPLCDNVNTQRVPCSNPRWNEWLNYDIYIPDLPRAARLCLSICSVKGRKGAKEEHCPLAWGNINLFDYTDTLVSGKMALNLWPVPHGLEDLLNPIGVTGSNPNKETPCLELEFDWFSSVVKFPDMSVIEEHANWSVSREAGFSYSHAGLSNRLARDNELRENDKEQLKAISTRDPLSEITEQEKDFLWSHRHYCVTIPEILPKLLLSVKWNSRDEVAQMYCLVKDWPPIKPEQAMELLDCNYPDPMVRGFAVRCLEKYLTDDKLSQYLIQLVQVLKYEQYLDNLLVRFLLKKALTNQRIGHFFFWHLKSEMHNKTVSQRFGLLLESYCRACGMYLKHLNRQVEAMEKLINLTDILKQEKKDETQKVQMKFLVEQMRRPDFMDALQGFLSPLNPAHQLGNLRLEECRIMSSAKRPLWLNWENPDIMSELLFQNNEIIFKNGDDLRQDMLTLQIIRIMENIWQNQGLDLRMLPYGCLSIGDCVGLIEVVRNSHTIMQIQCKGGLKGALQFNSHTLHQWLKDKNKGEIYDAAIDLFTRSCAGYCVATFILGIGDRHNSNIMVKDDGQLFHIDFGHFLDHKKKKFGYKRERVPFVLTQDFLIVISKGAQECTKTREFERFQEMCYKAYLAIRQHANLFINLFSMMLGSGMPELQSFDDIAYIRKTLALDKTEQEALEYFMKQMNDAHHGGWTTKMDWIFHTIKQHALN
smiles,measurement,setting,value
Cc1ccc(S(=O)(=O)NCC(C)(C)O)cc1-c1cnc(N)c(-c2cnc(C3CC3)o2)c1,pIC50,[1],6.55
same,pIC50,[2],5.89
